This assay has as its target T1, PE-labeled human PD-L1-Ig binding to Jurkat cell line over-expressing human PD-1 (Jurkat-PD-1) (Homo sapiens, UniProt Q15116).
T1 construct: expressed in transfected cells; host or cells: Jurkat
The assay can be described thus: Jurkat-PD-1 Cell Binding High-Content Screening Assay (CBA): Method 1. The following applies: Jurkat-hPD-1 cells, PE-labeled PD-L1-Ig 20 nM final; read-out: Jurkat HPDL1 PD1 IC50 (uM) (Method 1).

Numbered stars: 1 amine (or outer) side, 2 acyl side, 3 side chain; on linkers, the order of the positions; unused ones are H or OH. Bridge positions count the residues as written; N and C are the ends. Square brackets hold non-standard residues; d marks the D form. Peptide text beside a SMILES is read from it. * marks the point of attachment. ξ: configuration not given here. Tyr(3-NO2) = N[C@@H](Cc1ccc(O)c([N+](=O)[O-])c1)C(=O)O; Ala(morpholin-4-yl) = N[C@@H](CN1CCOCC1)C(=O)O; Phe(4-COOH) = N[C@@H](Cc1ccc(C(=O)O)cc1)C(=O)O; Bip = N[C@@H](Cc1ccc(-c2ccccc2)cc1)C(=O)O; Phe(3-OMe) = COc1cccc(C[C@H](N)C(=O)O)c1; Ala(2-furyl) = N[C@@H](Cc1ccco1)C(=O)O; Phe(3-F) = N[C@@H](Cc1cccc(F)c1)C(=O)O; Phe(3-Me) = Cc1cccc(C[C@H](N)C(=O)O)c1; Val(3-OH) = CC(C)(O)[C@H](N)C(=O)O; X49 = O=C(C(N[*:1])C1CCOCC1)[*:2]; 3Pal = N[C@@H](Cc1cccnc1)C(=O)O; 4Pal = N[C@@H](Cc1ccncc1)C(=O)O; Cha = N[C@@H](CC1CCCCC1)C(=O)O; Cit = NC(=O)NCCC[C@H](N)C(=O)O; Ile(3ξ) = CCC(C)[C@H](N)C(=O)O; AllylGly = C=CC[C@H](N)C(=O)O; Thr(3ξ) = CC(O)[C@H](N)C(=O)O; Carboxymethyl = O=C(O)C*; NMeA = CN[C@@H](C)C(=O)O; Orn = NCCC[C@H](N)C(=O)O; Dab = NCC[C@H](N)C(=O)O; ξC = NC(CS)C(=O)O

T1 sequence (Q15116 25-288): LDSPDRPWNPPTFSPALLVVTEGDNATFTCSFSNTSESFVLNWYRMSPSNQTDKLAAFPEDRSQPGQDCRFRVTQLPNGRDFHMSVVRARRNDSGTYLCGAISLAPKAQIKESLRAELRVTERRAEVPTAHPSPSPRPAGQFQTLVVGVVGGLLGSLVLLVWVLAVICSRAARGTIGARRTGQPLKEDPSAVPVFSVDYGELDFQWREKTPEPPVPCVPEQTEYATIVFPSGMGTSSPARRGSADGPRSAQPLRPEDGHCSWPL

In general, IC50 refers to the concentration needed to halve the response being measured. On to `CC(C)C[C@H]1NC(=O)[C@H](C)N(C)C(=O)[C@H](CCCNC(=N)N)NC(=O)[C@H](Cc2ccc(-c3ccccc3)cc2)NC(=O)[C@H](C(C)C)NC(=O)[C@H](Cc2c[nH]c3ccccc23)NC(=O)[C@H](CC(=O)O)NC(=O)[C@H](Cc2ccc(O)cc2)NC(=O)[C@H](CC(N)=O)NC(=O)CSC[C@@H](C(=O)N[C@@H](C)C(N)=O)NC(=O)[C@H]([C@@H](C)O)NC(=O)[C@H](C(C)C)NC(=O)[C@H](CC2CCCCC2)NC(=O)[C@H](CCCNC(=N)N)NC1=O` [Compound 1275] ({CH2CO}-NYDWV[Bip]R[NMeA][dL]R[Cha]VTCA-NH2; thioether N-14), for which the IC50 stood at 0.03 µM.

As to `COc1cccc(C[C@@H]2NC(=O)[C@H](CC(N)=O)NC(=O)CSC[C@@H](C(=O)N[C@@H](C)C(N)=O)NC(=O)[C@H]([C@@H](C)O)NC(=O)[C@H](C(C)C)NC(=O)[C@H](CC(C)C)NC(=O)[C@H](CCN)NC(=O)[C@@H](CC(C)C)NC(=O)[C@H](C)N(C)C(=O)[C@H](CCCNC(N)=O)NC(=O)[C@H](Cc3ccc(-c4ccccc4)cc3)NC(=O)[C@H](C(C)C)NC(=O)[C@H](Cc3c[nH]c4ccccc34)NC(=O)[C@H](CC(=O)O)NC2=O)c1` [Compound 1313] ({CH2CO}-N[Phe(3-OMe)]DWV[Bip][Cit][NMeA][dL][Dab]LVTCA-NH2; thioether N-14), the IC50 is 0.04 µM. Consider `Cc1cccc(C[C@@H]2NC(=O)[C@H](CC(=O)O)NC(=O)[C@H](Cc3ccc(O)cc3)NC(=O)[C@H](CC(N)=O)NC(=O)CSC[C@@H](C(=O)N[C@@H](C)C(N)=O)NC(=O)[C@H]([C@@H](C)O)NC(=O)[C@H](C(C)C)NC(=O)[C@H](CC(C)C)NC(=O)[C@H](CCN)NC(=O)[C@@H](CC(C)C)NC(=O)[C@H](C)N(C)C(=O)[C@H](Cc3cnc[nH]3)NC(=O)[C@H](Cc3ccc(-c4ccccc4)cc3)NC(=O)[C@H](C(C)C)NC2=O)c1` [Compound 1376] ({CH2CO}-NYD[Phe(3-Me)]V[Bip]H[NMeA][dL][Dab]LVTCA-NH2; thioether N-14), for which the IC50 was 0.02 µM. Consider `CCC(C)[C@@H]1NC(=O)[C@H](Cc2ccc(-c3ccccc3)cc2)NC(=O)[C@H](C(C)C)NC(=O)[C@H](Cc2c[nH]c3ccccc23)NC(=O)[C@H](CC(=O)O)NC(=O)[C@H](Cc2ccc(O)cc2)NC(=O)[C@H](Cc2ccco2)NC(=O)CSC[C@@H](C(=O)NC(C(N)=O)C2CCOCC2)NC(=O)[C@H](C(C)O)NC(=O)[C@H](C(C)(C)O)NC(=O)[C@H](CC2CCCCC2)NC(=O)[C@H](CC(N)=O)NC(=O)[C@@H](CC(C)C)NC(=O)[C@H](C)N(C)C1=O` (stereo partly drawn) [Compound 2176] ({CH2CO}-[Ala(2-furyl)]YDWV[Bip][Ile(3ξ)][NMeA][dL]N[Cha][Val(3-OH)][Thr(3ξ)]C[X49]-NH2; thioether N-14), for which the IC50 was 0.19 µM. With `CC(C)C[C@@H]1NC(=O)[C@H](CCN)NC(=O)[C@@H](CC(C)C)NC(=O)[C@H](C)N(C)C(=O)[C@H](CCCNC(N)=O)NC(=O)[C@H](Cc2ccc(-c3ccccc3)cc2)NC(=O)[C@H](C(C)C)NC(=O)[C@H](Cc2c[nH]c3ccccc23)NC(=O)[C@H](CC(=O)O)NC(=O)[C@H](Cc2ccc(O)c([N+](=O)[O-])c2)NC(=O)[C@H](Cc2cccnc2)NC(=O)CSC[C@@H](C(=O)N[C@@H](C)C(N)=O)NC(=O)[C@H]([C@@H](C)O)NC(=O)[C@H](C(C)C)NC1=O` [Compound 1338] ({CH2CO}-[3Pal][Tyr(3-NO2)]DWV[Bip][Cit][NMeA][dL][Dab]LVTCA-NH2; thioether N-14), the IC50 was found to be 0.01 µM. Consider `CCC(C)[C@@H]1NC(=O)[C@H](Cc2ccc(-c3ccccc3)cc2)NC(=O)[C@H](CC(C)C)NC(=O)[C@H](Cc2c[nH]c3ccccc23)NC(=O)[C@H](CC(=O)O)NC(=O)[C@H](Cc2ccc(C(=O)O)cc2)NC(=O)[C@H](Cc2ccc(OCC(=O)O)cc2)NC(=O)CSC[C@@H](C(=O)N[C@@H](CCN)C(N)=O)NC(=O)[C@H](CCC(N)=O)NC(=O)[C@H](C(C)C)NC(=O)[C@H](CC2CCCCC2)NC(=O)[C@H](CCN)NC(=O)[C@@H](CC(C)C)NC(=O)[C@H](C)N(C)C1=O` (stereo partly drawn) [Compound 1927] ({CH2CO}-Y(Carboxymethyl)[Phe(4-COOH)]DWL[Bip][Ile(3ξ)][NMeA][dL][Dab][Cha]VQC[Dab]-NH2; thioether N-14), for which the half-maximal inhibitory concentration (IC50) came to 0.01 µM. Turning to `CC(C)C[C@@H]1NC(=O)[C@H](CCN)NC(=O)[C@@H](CC(C)C)NC(=O)[C@H](C)N(C)C(=O)[C@H](C(C)C)NC(=O)[C@H](Cc2ccc(-c3ccccc3)cc2)NC(=O)[C@H](C(C)C)NC(=O)[C@H](Cc2c[nH]c3ccccc23)NC(=O)[C@H](CC(=O)O)NC(=O)[C@H](Cc2ccc(C(=O)O)cc2)NC(=O)[C@H](Cc2ccc(OCC(=O)O)cc2)NC(=O)CSC[C@@H](C(=O)N[C@@H](C)C(N)=O)NC(=O)[C@H]([C@@H](C)O)NC(=O)[C@H](C(C)C)NC1=O` [Compound 1570] ({CH2CO}-Y(Carboxymethyl)[Phe(4-COOH)]DWV[Bip]V[NMeA][dL][Dab]LVTCA-NH2; thioether N-14), the IC50 was 0.01 µM. On to `Cc1cccc(C[C@@H]2NC(=O)[C@H](CC(=O)O)NC(=O)[C@H](Cc3ccc(OCC(=O)O)cc3)NC(=O)[C@H](CN3CCOCC3)NC(=O)CSC[C@@H](C(=O)N[C@@H](CCN)C(N)=O)NC(=O)[C@H](CCCN)NC(=O)[C@H](C(C)C)NC(=O)[C@H](Cc3cccc(F)c3)NC(=O)[C@H](CCN)NC(=O)[C@@H](CC(C)C)NC(=O)[C@H](C)N(C)C(=O)[C@H](CCC(N)=O)NC(=O)[C@H](Cc3ccc(-c4ccccc4)cc3)NC(=O)[C@H](Cc3ccc(C(=O)O)cc3)NC2=O)c1` [Example 2294] ({CH2CO}-[Ala(morpholin-4-yl)]Y(Carboxymethyl)D[Phe(3-Me)][Phe(4-COOH)][Bip]Q[NMeA][dL][Dab][Phe(3-F)]V[Orn]C[Dab]-NH2; thioether N-14), for which the IC50 came to 0.95 µM.

As to `C=CC[C@H](NC(=O)C1CSCC(=O)N[C@@H](Cc2ccc(OCC(=O)O)cc2)C(=O)N[C@@H](CC=C)C(=O)N[C@@H](CC(=O)O)C(=O)N[C@@H](Cc2cccc(C)c2)C(=O)N[C@@H](CC(C)C)C(=O)N[C@@H](Cc2ccc(-c3ccccc3)cc2)C(=O)N[C@@H](C(C)C)C(=O)N(C)[C@@H](C)C(=O)N[C@H](CC(C)C)C(=O)N[C@@H](CC(N)=O)C(=O)N[C@@H](CC(C)C)C(=O)N[C@@H](C(C)C)C(=O)N[C@@H](CO)C(=O)N1)C(N)=O` (stereo partly drawn) [Compound 1884] ({CH2CO}-Y(Carboxymethyl)[AllylGly]D[Phe(3-Me)]L[Bip]V[NMeA][dL]NLVS[ξC][AllylGly]-NH2; thioether N-14), the IC50 stood at 0.03 µM.

For `CC(C)C[C@@H]1NC(=O)[C@H](Cc2c[nH]c3ccccc23)NC(=O)[C@H](CC(=O)O)NC(=O)[C@H](Cc2ccc(O)cc2)NC(=O)[C@H](Cc2ccccc2)NC(=O)CSC[C@@H](C(=O)N[C@@H](C)C(N)=O)NC(=O)[C@H](CO)NC(=O)[C@H](C(C)C)NC(=O)[C@H](CC(C)C)NC(=O)[C@H](CC(N)=O)NC(=O)[C@@H](C)NC(=O)[C@H](C)N(C)C(=O)[C@H](CCC(=O)O)NC(=O)[C@H](Cc2ccc(-c3ccccc3)cc2)NC1=O` [Compound 1768] ({CH2CO}-FYDWL[Bip]E[NMeA][dA]NLVSCA-NH2; thioether N-14), the half-maximal inhibitory concentration (IC50) was found to be 0.04 µM. To `CC(C)C[C@@H]1NC(=O)[C@H](Cc2c[nH]c3ccccc23)NC(=O)[C@H](CC(=O)O)NC(=O)[C@H](Cc2ccc(O)cc2)NC(=O)[C@H](Cc2ccccc2)NC(=O)CSC[C@@H](C(=O)NCC(N)=O)NC(=O)[C@H]([C@@H](C)O)NC(=O)[C@H](C(C)C)NC(=O)[C@H](CC(C)C)NC(=O)[C@H](CCN)NC(=O)[C@@H](C)NC(=O)[C@H](C)N(C)C(=O)[C@H](C(C)C)NC(=O)[C@H](Cc2ccc(-c3ccccc3)cc2)NC1=O` [Compound 1477] ({CH2CO}-FYDWL[Bip]V[NMeA][dA][Dab]LVTCG-NH2; thioether N-14) belongs 0.02 µM.

In the case of `CC(C)C[C@@H]1NC(=O)[C@H](Cc2c[nH]c3ccccc23)NC(=O)[C@H](CC(=O)O)NC(=O)[C@H](Cc2ccc(O)cc2)NC(=O)[C@H](Cc2ccccc2)NC(=O)CSC[C@@H](C(=O)NCC(N)=O)NC(=O)[C@H]([C@@H](C)O)NC(=O)[C@H](C(C)C)NC(=O)[C@H](CC(C)C)NC(=O)[C@H](CC(N)=O)NC(=O)[C@@H](CC(C)C)NC(=O)[C@H](C)N(C)C(=O)[C@H](C(C)C)NC(=O)[C@H](Cc2ccc(-c3ccccc3)cc2)NC1=O` [Compound 1466] ({CH2CO}-FYDWL[Bip]V[NMeA][dL]NLVTCG-NH2; thioether N-14), the IC50 worked out at 0.02 µM. Take `Cc1cccc(C[C@@H]2NC(=O)[C@H](CC(=O)O)NC(=O)[C@H](Cc3ccncc3)NC(=O)[C@H](Cc3ccc(OCC(=O)O)cc3)NC(=O)CSC[C@@H](C(=O)N[C@@H](C)C(N)=O)NC(=O)[C@H](CO)NC(=O)[C@H](C(C)C)NC(=O)[C@H](CC(C)C)NC(=O)[C@H](CC(N)=O)NC(=O)[C@@H](CC(C)C)NC(=O)[C@H](C)N(C)C(=O)[C@H](C(C)C)NC(=O)[C@H](Cc3ccc(-c4ccccc4)cc3)NC(=O)[C@H](CC(C)C)NC2=O)c1` [Compound 1589] ({CH2CO}-Y(Carboxymethyl)[4Pal]D[Phe(3-Me)]L[Bip]V[NMeA][dL]NLVSCA-NH2; thioether N-14): the IC50 is 0.03 µM. With `Cc1cccc(C[C@@H]2NC(=O)[C@H](CC(=O)O)NC(=O)[C@H](Cc3ccc(OCC(=O)O)cc3)NC(=O)[C@H](C(C)O)NC(=O)CSC[C@@H](C(N)=O)NC(=O)[C@H](CO)NC(=O)[C@H](C(C)(C)O)NC(=O)[C@H](CC3CCCCC3)NC(=O)[C@H](CCN)NC(=O)[C@@H](CC(C)C)NC(=O)[C@H](C)N(C)C(=O)[C@H](Cc3ccc(OCC(=O)O)cc3)NC(=O)[C@H](Cc3ccc(-c4ccccc4)cc3)NC(=O)[C@H](Cc3ccc(C(=O)O)cc3)NC2=O)c1` (stereo partly drawn) [Compound 2264] ({CH2CO}-[Thr(3ξ)]Y(Carboxymethyl)D[Phe(3-Me)][Phe(4-COOH)][Bip]Y(Carboxymethyl)[NMeA][dL][Dab][Cha][Val(3-OH)]SC-NH2; thioether N-14), the IC50 was 0.09 µM. To `CC(C)C[C@@H]1NC(=O)CSC[C@@H](C(=O)NCC(N)=O)NC(=O)[C@H](CO)NC(=O)[C@H](C(C)C)NC(=O)[C@H](CC(C)C)NC(=O)[C@H](CCCNC(=N)N)NC(=O)[C@@H](Cc2ccccc2)NC(=O)[C@H](C)N(C)C(=O)[C@H](CCCNC(=N)N)NC(=O)[C@H](Cc2ccc(-c3ccccc3)cc2)NC(=O)[C@H](C(C)C)NC(=O)[C@H](Cc2c[nH]c3ccccc23)NC(=O)[C@H](CC(=O)O)NC(=O)[C@H](Cc2ccc(O)cc2)NC1=O` [Compound 1024] ({CH2CO}-LYDWV[Bip]R[NMeA][dF]RLVSCG-NH2; thioether N-14) belongs 0.15 µM.

(Values after patent publication US20240409585A1, “MACROCYCLIC IMMUNOMODULATORS” (priority 2021, published 2024).)
